Reference: ChEMBL document CHEMBL4321809, “Structure-Reactivity Relationships on Substrates and Inhibitors of the Lysine Deacylase Sirtuin 2 from Schistosoma mansoni (SmSirt2)” (J Med Chem, 2019)
Calls of active or inactive are those of the source. The calls are words filed in the database; no cut-off is given here.

Key:
[1] = biological target: T1, NAD-dependent protein deacetylase (Schistosoma mansoni) (UniProt T1VXA1); assay: Inhibition of recombinant Schistosoma mansoni sirtuin 2 (21 to 322 residues) expressed in Escherichia coli BL21(DE3) cells assessed as inhibition of substrate demyristoylation at 20 uM using (Z)-(Myr)-Lys-AMC as susbtrate after 1 hr in presence of NAD+ by homogeneous fluorescence based analysis relative to control
T1 sequence (whole entry): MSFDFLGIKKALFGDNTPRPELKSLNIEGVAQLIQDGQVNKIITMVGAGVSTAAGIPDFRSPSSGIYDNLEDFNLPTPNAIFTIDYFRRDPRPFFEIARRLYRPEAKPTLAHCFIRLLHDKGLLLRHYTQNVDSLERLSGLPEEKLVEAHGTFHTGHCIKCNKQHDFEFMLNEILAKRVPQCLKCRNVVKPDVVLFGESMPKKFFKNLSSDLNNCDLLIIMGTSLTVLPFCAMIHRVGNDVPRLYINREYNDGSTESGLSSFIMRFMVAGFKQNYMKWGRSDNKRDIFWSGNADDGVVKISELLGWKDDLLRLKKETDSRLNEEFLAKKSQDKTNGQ

[2] = biological target: T1, NAD-dependent protein deacetylase (Schistosoma mansoni); assay: Inhibition of recombinant Schistosoma mansoni sirtuin 2 (21 to 322 residues) expressed in Escherichia coli BL21(DE3) cells at 25 uM using ZMAL as susbtrate after 1 hr in presence of NAD+ by homogeneous fluorescence based analysis relative to control
[3] = biological target: T2, NAD-dependent protein deacetylase sirtuin-2 (Homo sapiens, UniProt Q8IXJ6); assay: Inhibition of N-terminal His6 tagged human sirtuin 2 (25 to 389 residues) at 25 uM using Cbz-Lys(acetyl)-AMC as substrate after 4 hrs in presence of NAD+ by homogeneous fluorescence based analysis relative to control
T2 sequence (Q8IXJ6 whole entry): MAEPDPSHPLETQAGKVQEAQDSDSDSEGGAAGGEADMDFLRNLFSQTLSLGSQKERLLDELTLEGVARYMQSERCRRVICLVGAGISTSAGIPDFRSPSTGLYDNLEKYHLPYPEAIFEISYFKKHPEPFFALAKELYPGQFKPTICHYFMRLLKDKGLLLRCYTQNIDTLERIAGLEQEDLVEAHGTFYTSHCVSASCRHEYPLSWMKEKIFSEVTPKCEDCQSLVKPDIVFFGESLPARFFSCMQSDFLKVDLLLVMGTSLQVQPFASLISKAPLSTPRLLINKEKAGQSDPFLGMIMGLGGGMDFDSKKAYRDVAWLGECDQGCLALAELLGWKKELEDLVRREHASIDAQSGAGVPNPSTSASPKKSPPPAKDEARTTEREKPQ

[4] = biological target: T2, NAD-dependent protein deacetylase sirtuin-2; assay: Inhibition of N-terminal His6 tagged human sirtuin 2 (25 to 389 residues) assessed as inhibition of substrate demyristoylation at 20 uM using (Z)-(Myr)-Lys-AMC as susbtrate after 4 hrs in presence of NAD+ by homogeneous fluorescence based analysis relative to control
[5] = biological target: T1, NAD-dependent protein deacetylase (Schistosoma mansoni); assay: Inhibition of recombinant Schistosoma mansoni sirtuin 2 (21 to 322 residues) expressed in Escherichia coli BL21(DE3) cells in presence of (Z)-(Dec)Lys-AMC
[6] = biological target: T1, NAD-dependent protein deacetylase (Schistosoma mansoni); assay: Inhibition of recombinant Schistosoma mansoni sirtuin 2 (21 to 322 residues) expressed in Escherichia coli BL21(DE3) cells in presence of (Z)-(But)Lys-AMC
[7] = biological target: T1, NAD-dependent protein deacetylase (Schistosoma mansoni); assay: Inhibition of recombinant Schistosoma mansoni sirtuin 2 (21 to 322 residues) expressed in Escherichia coli BL21(DE3) cells in presence of (Z)-(Oct)Lys-AMC
[8] = biological target: T1, NAD-dependent protein deacetylase (Schistosoma mansoni); assay: Inhibition of recombinant Schistosoma mansoni sirtuin 2 (21 to 322 residues) expressed in Escherichia coli BL21(DE3) cells in presence of (Z)-(Pal)Lys-AMC
[9] = biological target: T1, NAD-dependent protein deacetylase (Schistosoma mansoni); assay: Inhibition of recombinant Schistosoma mansoni sirtuin 2 (21 to 322 residues) expressed in Escherichia coli BL21(DE3) cells in presence of (Z)-(Myr)Lys-AMC
[10] = biological target: T2, NAD-dependent protein deacetylase sirtuin-2; assay: Inhibition of human sirutin 2 assessed as inhibition of susbtrate demyristoylation at 20 uM using (Z)-(Myr)-Lys-AMC as substrate relative to control
[11] = biological target: T3, NAD-dependent protein deacetylase (Schistosoma mansoni, UniProt T1VXA1); assay: Inhibition of recombinant Schistosoma mansoni sirtuin 2 (21 to 322 residues) expressed in Escherichia coli BL21(DE3) cells assessed as inhibition of substrate demyristoylation using (Z)-(Myr)-Lys-AMC as substrate
T3 sequence (T1VXA1 whole entry): T1 sequence (whole entry)

[12] = biological target: T1, NAD-dependent protein deacetylase (Schistosoma mansoni); assay: Inhibition of recombinant Schistosoma mansoni sirtuin 2 (21 to 322 residues) expressed in Escherichia coli BL21(DE3) cells in presence of (Z)-(Hex)Lys-AMC
[13] = biological target: T4, NAD-dependent protein deacetylase sirtuin-1 (Homo sapiens, UniProt Q96EB6); assay: Inhibition of human sirtuin 1 at 500 uM relative to control
T4 sequence (Q96EB6 whole entry): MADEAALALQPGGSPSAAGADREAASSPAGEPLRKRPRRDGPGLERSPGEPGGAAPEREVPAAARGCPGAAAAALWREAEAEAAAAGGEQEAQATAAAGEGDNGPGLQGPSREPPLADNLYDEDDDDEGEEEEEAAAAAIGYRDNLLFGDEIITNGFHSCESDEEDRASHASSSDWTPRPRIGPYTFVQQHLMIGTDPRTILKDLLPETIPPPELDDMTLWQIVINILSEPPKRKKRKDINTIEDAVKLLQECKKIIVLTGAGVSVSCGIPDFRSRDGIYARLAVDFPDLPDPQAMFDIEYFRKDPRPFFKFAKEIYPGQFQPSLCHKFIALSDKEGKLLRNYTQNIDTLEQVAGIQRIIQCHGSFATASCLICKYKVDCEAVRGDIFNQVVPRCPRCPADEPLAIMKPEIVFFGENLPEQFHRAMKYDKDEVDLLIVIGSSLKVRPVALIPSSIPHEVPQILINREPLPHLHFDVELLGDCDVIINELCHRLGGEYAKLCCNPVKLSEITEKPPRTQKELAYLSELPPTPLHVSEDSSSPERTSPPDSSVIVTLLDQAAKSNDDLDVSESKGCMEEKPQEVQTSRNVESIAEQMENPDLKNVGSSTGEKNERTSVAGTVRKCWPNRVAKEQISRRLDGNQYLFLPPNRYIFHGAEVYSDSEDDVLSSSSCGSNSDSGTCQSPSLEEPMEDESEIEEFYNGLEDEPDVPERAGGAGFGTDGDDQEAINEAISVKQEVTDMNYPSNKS

[14] = biological target: T1, NAD-dependent protein deacetylase (Schistosoma mansoni); assay: Inhibition of recombinant Schistosoma mansoni sirtuin 2 (21 to 322 residues) expressed in Escherichia coli BL21(DE3) cells in presence of (Z)-(Lau)Lys-AMC
[15] = biological target: T3, NAD-dependent protein deacetylase; assay: Inhibition of recombinant Schistosoma mansoni sirtuin 2 (21 to 322 residues) expressed in Escherichia coli BL21(DE3) cells assessed as inhibition of substrate deacetylation using ZMAL as substrate
[16] = biological target: T1, NAD-dependent protein deacetylase (Schistosoma mansoni); assay: Inhibition of recombinant Schistosoma mansoni sirtuin 2 (21 to 322 residues) expressed in Escherichia coli BL21(DE3) cells in presence of ZMAL
[17] = substrate: NC(=O)c1ccc[n+]([C@H]2O[C@@H](COP(=O)([O-])OP(=O)(O)OC[C@H]3O[C@@H](n4cnc5c(N)ncnc54)[C@H](O)[C@@H]3O)[C@H](O)[C@@H]2O)c1; assay: Substrate activity at recombinant Schistosoma mansoni sirtuin 2 (21 to 322 residues) expressed in Escherichia coli BL21(DE3) cells assessed as Km up to 30 mins in presence of ZMAL at saturated substrate concentration by homogeneous fluorescence based analysis; format: ADME
[18] = substrate: NC(=O)c1ccc[n+]([C@H]2O[C@@H](COP(=O)([O-])OP(=O)(O)OC[C@H]3O[C@@H](n4cnc5c(N)ncnc54)[C@H](O)[C@@H]3O)[C@H](O)[C@@H]2O)c1; assay: Substrate activity at recombinant Schistosoma mansoni sirtuin 2 (21 to 322 residues) expressed in Escherichia coli BL21(DE3) cells assessed as Km up to 30 mins in presence of PSDKmyr at saturating concentration by RP-HPLC analysis; format: ADME
[19] = substrate: NC(=O)c1ccc[n+]([C@H]2O[C@@H](COP(=O)([O-])OP(=O)(O)OC[C@H]3O[C@@H](n4cnc5c(N)ncnc54)[C@H](O)[C@@H]3O)[C@H](O)[C@@H]2O)c1; assay: Substrate activity at recombinant Schistosoma mansoni sirtuin 2 (21 to 322 residues) expressed in Escherichia coli BL21(DE3) cells assessed as Km up to 30 mins in presence of PSDKac at saturating concentration by RP-HPLC analysis; format: ADME
[20] = substrate: NC(=O)c1ccc[n+]([C@H]2O[C@@H](COP(=O)([O-])OP(=O)(O)OC[C@H]3O[C@@H](n4cnc5c(N)ncnc54)[C@H](O)[C@@H]3O)[C@H](O)[C@@H]2O)c1; assay: Substrate activity at recombinant Schistosoma mansoni sirtuin 2 (21 to 322 residues) expressed in Escherichia coli BL21(DE3) cells assessed as Km up to 30 mins in presence of ZMML at saturated concentration by homogeneous fluorescence based analysis; format: ADME
[21] = substrate: CCCCCCCCCCCCCCCC(=O)NCCCC[C@H](NC(=O)OCc1ccccc1)C(=O)Nc1ccc2c(C)cc(=O)oc2c1; assay: (§1) Substrate activity at recombinant Schistosoma mansoni sirtuin 2 (21 to 322 residues) expressed in Escherichia coli BL21(DE3) cells assessed as Km up to 30 mins by homogeneous fluorescence based analysis; format: ADME
[22] = substrate: CC(=O)N[C@@H](CCCCN)C(=O)Nc1ccc2c(C)cc(=O)oc2c1; assay: as §1; format: ADME
[23] = substrate: CCCCCCCCCCCCCC(=O)NCCCC[C@H](NC(=O)[C@H](CC(=O)O)NC(=O)[C@H](CO)NC(=O)[C@@H]1CCCN1C(C)=O)C(=O)N[C@@H](Cc1ccc(O)cc1)C(=O)N[C@H](C(=O)NCC(=O)NCC(=O)N[C@@H](Cc1c[nH]c2ccccc12)C(=O)N[C@@H](Cc1c[nH]c2ccccc12)C(N)=O)[C@@H](C)CC; assay: Substrate activity at recombinant Schistosoma mansoni sirtuin 2 (21 to 322 residues) expressed in Escherichia coli BL21(DE3) cells assessed as Km up to 30 mins by RP-HPLC analysis; format: ADME

Molecule: COc1ccc(C(=O)Nc2ccc(C(C)N(C)c3ncc4c(N)nc(N)nc4n3)cc2)cc1 (centres undefined)
- inhibition [1]: < 15%
- inhibition [2]: 41.9%
- inhibition at 25 µM [3]: < 15%
- inhibition at 20 µM [4]: < 15%

Molecule: CSc1ccc(Oc2ccc(C(C)N(C)c3ncc4c(N)nc(N)nc4n3)cc2)cc1 (centres undefined)
- inhibition [1]: < 15%
- inhibition [2]: 49%
- inhibition at 25 µM [3]: < 15%
- inhibition at 20 µM [4]: 38.1%

Molecule: NC(=O)c1cccnc1 [NIACINAMIDE]
- inhibition [5]: inactive
- inhibition [6]: Active
- inhibition [7]: Active
- inhibition [8]: inactive
- inhibition [9]: inactive
- inhibition at 20 µM [10]: 8.7%
- IC50 [11]: 420 µM
- inhibition [12]: Active
- inhibition at 500 µM [13]: 100%
- inhibition [14]: inactive
- IC50 [15]: 23.1 µM
- inhibition [16]: Active

B1: NAD-dependent protein deacetylase (Schistosoma mansoni) (protein)
chain: T1 sequence (whole entry)
- Km [17]: 75.8 µM
- kcat [17]: 0.000119 s⁻¹
- Km [18]: 13.3 µM
- kcat [18]: 0.00538 s⁻¹
- kcat/Km [18]: 410 M⁻¹ s⁻¹
- Km [19]: 33.9 µM
- kcat [19]: 0.00172 s⁻¹
- kcat/Km [19]: 51 M⁻¹ s⁻¹
- Km [20]: 9.3 µM
- Km [21]: 37.5 µM
- Km [22]: 59 µM
- Km [23]: 15.1 µM
- kcat [23]: 0.00563 s⁻¹
- kcat/Km [23]: 370 M⁻¹ s⁻¹
